Laboratory results: PubChem BioAssay AID1963835 (Molecular Pharmacology Branch, DTP, NCI, 2024)

Test system: 699152-130-R-J1-PDC complex spheroid viability
Test: Anticancer human tumor 699152-130-R-J1-PDC patient-derived pancreatic carcinoma cell line growth inhibition [POLQ]
Conditions: for viability, T/C: stronger effect = lower value
Experimental: Multicellular complex tumor spheroid response to Polymerase (POL) inhibitors (novobiocin, ART-558, RP6685) in combination with a variety of drugs and investigational agents in selected tumor cell lines
The POL inhibitors (novobiocin, ART-558, and RP6685) were evaluated both individually and in combination with standard of care and investigational anticancer small molecules within a complex spheroid model of solid tumors. . Complex spheroids include a stromal component modeled by human endothelial cells (HUVEC) and fibroblasts modeled by human mesenchymal stem cells (MSCs). The concentration ranges selected for each drug and investigational agent were based upon clinically achievable concentrations if the clinical Cmax of the agent was known.
Compounds. The drugs and investigational agents: novobiocin (NSC847541), ART-558 (NSC835418), RP-6685 (NSC848927), peposertib (NSC802822), ceralasertib (NSC780249), elimusertib (NSC800525), camonsertib (NSC841442), AZD-1390 (NSC803789), olaparib (NSC753686), talazoparib (NSC767125), rucaparib (NSC756644), sotorasib (NSC818433), MRTX-1133 (NSC836407), SN-38 (NSC673596), topotecan (NSC609699), epotoside (NSC141540), doxorubicin (NSC123127), gemcitabine (NSC613327), 5-fluorouracil (NSC19893), paclitaxel (NSC125973), vemurafenib (NSC761431), MSA-2 (NSC828583), SN-011 (NSC837082), adavosertib (NSC754352), prexasertib (NSC758257), carboplatin (NSC241240) and oxaliplatin (NSC266046), were obtained from the National Cancer Institute (NCI) Developmental Therapeutics Program Chemical Repository (21). The FDA-approved anticancer drug set is available from the Developmental Therapeutics Program at https://dtp.cancer.gov/organization/dscb/obtaining/. […] The stock solutions were prepared in dimethyl sulfoxide (DMSO, Sigma-Aldrich, St. Louis, MO, cat. D2650), except for the platinum compounds which were prepared in saline (Quality Biological, Gaithersburg, MD, cat. 114-055-101), at 800-fold the tested concentration and stored at -70 degrees C prior to their use. All drugs and investigational agents were tested over a range starting from a high concentration at or near the clinical Cmax and decreasing in half-log increments. If the clinical Cmax for an agent had not been determined, the highest concentration tested was 10 microM, except for SN-38, which was tested at a high concentration of 1 microM.
Cell Culture. All cells were maintained in an incubator at 37 degrees C and 5% CO2 with 95% humidity. The PDC lines were cultured according to standard operating procedures established by the NCI PDMR (https://pdmr.cancer.gov). Table 3 of the manuscript, lists the cell lines along with the number of the three cell types plated to form the mct-spheroids and media for tumor cell growth. After thawing, all PDC lines, except 997537-175-T-J1-PDC and 415267-285-R-J2-PDC, were cultured in Matrigel-coated flasks prepared with a working solution of 1X Ham's F-12 nutrient mix, without supplementation (Thermo Fisher Scientific, cat. 11765054), 100 U/mL penicillin-streptomycin (Thermo Fisher Scientific, cat. 15140122), and 2.5% Matrigel (Corning Inc., Corning, NY, cat. 354248) for the first three passages. The two PDC lines 997537-175-T-J1-PDC and 415267-285-R-J2-PDC were cultured on uncoated flasks. The 857933-349-R-J2-PDC line was cultured in 6C/Colon 1B media containing advanced DMEM/F-12 (Thermo Fisher Scientific, cat. 12634028), 10 mM HEPES (Thermo Fisher Scientific, cat. 15630080), 1X GlutaMAX supplement (Thermo Fisher Scientific, cat. 35050061), 0.1 mg/mL primocin (InvivoGen, San Diego, CA, cat. ant-pm-2), 10% defined fetal bovine serum, heat inactivated (HyClone Laboratories Inc., Logan, UT, cat. SH30070.03HI), 50% L-WRN conditioned media (ATCC, cat. CRL-3276), 1.25 mM N-Acetyl-L-cysteine (Sigma-Aldrich, cat. A9165), 10 mM nicotinamide (Sigma-Aldrich, cat. N0636), 1X B-27 supplement (Thermo Fisher Scientific, cat. 17504044), 1X N-2 supplement (Thermo Fisher Scientific, cat. […]

[1] = curve of first compound, second compound 0.0316 µM
[2] = curve of first compound, second compound 0.1 µM
[3] = curve of first compound, second compound 0.316 µM
[4] = curve of first compound, second compound 1 µM
[5] = curve of first compound, second compound 3.16 µM
[6] = curve of first compound, second compound 10 µM
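Also: spheroids exposed to agents for 7 days before viability reading.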
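For viability, T/C in this document: percent of DMSO vehicle control viability so 100% = vehicle and 0% = no viable signal.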

In the case of `CC(=O)O[C@H]1C(=O)[C@@]2(C)[C@H]([C@H](OC(=O)c3ccccc3)[C@]3(O)C[C@H](OC(=O)[C@H](O)[C@@H](NC(=O)c4ccccc4)c4ccccc4)C(C)=C1C3(C)C)[C@]1(OC(C)=O)CO[C@@H]1C[C@@H]2O` + COC1C(OC(N)=O)C(O)C(Oc2ccc3c(O)c(NC(=O)c4ccc(O)c(CC=C(C)C)c4)c(=O)oc3c2C)OC1(C)C, the IC50 [1] is reported as > 3 µM, the IC50 [2] is reported as > 3 µM and the IC50 [3] is reported as > 3 µM. The IC50 [4] was > 3 µM, the IC50 [5] was > 3 µM and the IC50 [6] was > 3 µM. The viability, T/C (second compound 0.0316 µM, first compound 0.00949 µM) was 81.5%, the viability, T/C (second compound 0.0316 µM, first compound 0.03 µM) was 57% and the viability, T/C (second compound 0.0316 µM, first compound 0.0949 µM) was 57.1%. It also gave a viability, T/C (second compound 0.0316 µM, first compound 0.3 µM) of 60.7%, a viability, T/C (second compound 0.0316 µM, first compound 0.949 µM) of 70.2% and a viability, T/C (second compound 0.0316 µM, first compound 3 µM) of 63%. The viability, T/C (second compound 0.1 µM, first compound 0.00949 µM) was 87.9%, the viability, T/C (second compound 0.1 µM, first compound 0.03 µM) was 60.2% and the viability, T/C (second compound 0.1 µM, first compound 0.0949 µM) was 47.7%. For the same compound, the viability, T/C (second compound 0.1 µM, first compound 0.3 µM) was 62.5%, the viability, T/C (second compound 0.1 µM, first compound 0.949 µM) was 62.4% and the viability, T/C (second compound 0.1 µM, first compound 3 µM) was 74.5%. The viability, T/C (second compound 0.316 µM, first compound 0.00949 µM) was 90%, the viability, T/C (second compound 0.316 µM, first compound 0.03 µM) was 61.4% and the viability, T/C (second compound 0.316 µM, first compound 0.0949 µM) was 46.9%. The viability, T/C (second compound 0.316 µM, first compound 0.3 µM) was 53.2%, the viability, T/C (second compound 0.316 µM, first compound 0.949 µM) was 57.3% and the viability, T/C (second compound 0.316 µM, first compound 3 µM) was 58.1%. For the same compound, the viability, T/C (second compound 1 µM, first compound 0.00949 µM) was 77.2%, the viability, T/C (second compound 1 µM, first compound 0.03 µM) was 67.8% and the viability, T/C (second compound 1 µM, first compound 0.0949 µM) was 52.8%. For the same compound, the viability, T/C (second compound 1 µM, first compound 0.3 µM) was 57.7%, the viability, T/C (second compound 1 µM, first compound 0.949 µM) was 66% and the viability, T/C (second compound 1 µM, first compound 3 µM) was 68.7%. The viability, T/C (second compound 3.16 µM, first compound 0.00949 µM) was 91.9%, the viability, T/C (second compound 3.16 µM, first compound 0.03 µM) was 68.9% and the viability, T/C (second compound 3.16 µM, first compound 0.0949 µM) was 62.4%. It also gave a viability, T/C (second compound 3.16 µM, first compound 0.3 µM) of 55.5%, a viability, T/C (second compound 3.16 µM, first compound 0.949 µM) of 59.6% and a viability, T/C (second compound 3.16 µM, first compound 3 µM) of 73.1%. It also gave a viability, T/C (second compound 10 µM, first compound 0.00949 µM) of 84%, a viability, T/C (second compound 10 µM, first compound 0.03 µM) of 60.6% and a viability, T/C (second compound 10 µM, first compound 0.0949 µM) of 60.6%. It also gave a viability, T/C (second compound 10 µM, first compound 0.3 µM) of 61.7%, a viability, T/C (second compound 10 µM, first compound 0.949 µM) of 73.1% and a viability, T/C (second compound 10 µM, first compound 3 µM) of 67.9%.

With `CCCS(=O)(=O)Nc1ccc(F)c(C(=O)c2c[nH]c3ncc(-c4ccc(Cl)cc4)cc23)c1F` + COC1C(OC(N)=O)C(O)C(Oc2ccc3c(O)c(NC(=O)c4ccc(O)c(CC=C(C)C)c4)c(=O)oc3c2C)OC1(C)C the IC50 [1] was > 10 µM, the IC50 [2] was > 10 µM and the IC50 [3] was > 10 µM. The IC50 [4] was > 10 µM, the IC50 [5] was > 10 µM and the IC50 [6] was > 10 µM. The viability, T/C (second compound 0.0316 µM, first compound 0.0316 µM) was 117%, the viability, T/C (second compound 0.0316 µM, first compound 0.1 µM) was 105% and the viability, T/C (second compound 0.0316 µM, first compound 0.316 µM) was 125%. The viability, T/C (second compound 0.0316 µM, first compound 1 µM) was 151%, the viability, T/C (second compound 0.0316 µM, first compound 3.16 µM) was 172% and the viability, T/C (second compound 0.0316 µM, first compound 10 µM) was 64.7%. It also gave a viability, T/C (second compound 0.1 µM, first compound 0.0316 µM) of 115%, a viability, T/C (second compound 0.1 µM, first compound 0.1 µM) of 109% and a viability, T/C (second compound 0.1 µM, first compound 0.316 µM) of 126%. For the same compound, the viability, T/C (second compound 0.1 µM, first compound 1 µM) was 159%, the viability, T/C (second compound 0.1 µM, first compound 3.16 µM) was 191% and the viability, T/C (second compound 0.1 µM, first compound 10 µM) was 64.1%. It also gave a viability, T/C (second compound 0.316 µM, first compound 0.0316 µM) of 108%, a viability, T/C (second compound 0.316 µM, first compound 0.1 µM) of 112% and a viability, T/C (second compound 0.316 µM, first compound 0.316 µM) of 134%. For the same compound, the viability, T/C (second compound 0.316 µM, first compound 1 µM) was 149%, the viability, T/C (second compound 0.316 µM, first compound 3.16 µM) was 177% and the viability, T/C (second compound 0.316 µM, first compound 10 µM) was 59.9%. The viability, T/C (second compound 1 µM, first compound 0.0316 µM) was 105%, the viability, T/C (second compound 1 µM, first compound 0.1 µM) was 115% and the viability, T/C (second compound 1 µM, first compound 0.316 µM) was 126%. The viability, T/C (second compound 1 µM, first compound 1 µM) was 147%, the viability, T/C (second compound 1 µM, first compound 3.16 µM) was 171% and the viability, T/C (second compound 1 µM, first compound 10 µM) was 64.1%. The viability, T/C (second compound 3.16 µM, first compound 0.0316 µM) was 105%, the viability, T/C (second compound 3.16 µM, first compound 0.1 µM) was 121% and the viability, T/C (second compound 3.16 µM, first compound 0.316 µM) was 124%. The viability, T/C (second compound 3.16 µM, first compound 1 µM) was 145%, the viability, T/C (second compound 3.16 µM, first compound 3.16 µM) was 281% and the viability, T/C (second compound 3.16 µM, first compound 10 µM) was 68.3%. The viability, T/C (second compound 10 µM, first compound 0.0316 µM) was 107%, the viability, T/C (second compound 10 µM, first compound 0.1 µM) was 114% and the viability, T/C (second compound 10 µM, first compound 0.316 µM) was 123%. It also gave a viability, T/C (second compound 10 µM, first compound 1 µM) of 148%, a viability, T/C (second compound 10 µM, first compound 3.16 µM) of 175% and a viability, T/C (second compound 10 µM, first compound 10 µM) of 66.4%.

`Nc1ccc(C#CCN(C(=O)Cc2ncc(C(F)(F)F)cc2C(F)(F)F)c2ccc(F)cc2)nn1` was tested, and the viability, T/C (compound 0.0316 µM) was 96.2% [middle of 13 runs], the viability, T/C (compound 0.1 µM) was 99.3% [middle of 13 runs] and the viability, T/C (compound 0.316 µM) was 101% [middle of 13 runs]. For the same compound, the viability, T/C (compound 1 µM) was 101% [middle of 13 runs], the viability, T/C (compound 3.16 µM) was 103% [middle of 13 runs] and the viability, T/C (compound 10 µM) was 113% [middle of 13 runs]. The IC50 (compound alone, run of 12/05/2023) was > 10 µM.
